# Measured values as given in US11453632B2, “1-phenyl-2-phenylethane derivative” (KAO CORPORATION, priority 2018, dated 2022).
# Columns and labels:
# [1] = test system: back skin browning induced by testosterone; assay: Effect on sebum secretion (back skin browning) in testosterone-treated rat; assay type: in vivo; settings: testosterone 3 mg/kg/day plus test substance, subcutaneous osmotic pump, 28 days
# From the text: 12-week-old male Slc:SD (SPF) rats were obtained from Japan SLC, Inc. An acclimatization period was established for 1 week after receipt. During the acclimatization period, the rats were allowed to freely ingest a powder diet (AIN-93G). 2) Implantation of Osmotic Pump After body weight measurement, back hair was shaved under isoflurane (AbbVie GK) inhalation anesthesia, and carprofen was subcutaneously administered to the rats. Then, an incision of approximately 1 cm at the maximum was made on the cranial side in the back. An osmotic minipump Alzet (Muromachi Kikai Co., Ltd.) containing testosterone and compound 17-F or finasteride (Sigma-Aldrich Co. LLC) was subcutaneously implanted. From this osmotic pump, testosterone (3 mg/kg body weight/day) (Sigma-Aldrich Co. LLC) and compound 17-F (0.1 mg/body weight/day or 1 mg/kg body weight/day) or finasteride (0.1 mg/kg body weight/day or 1 mg/kg body weight/day) were continuously administered for 28 days. Since the implantation of the osmotic pump, the rats were allowed to freely ingest customized feed AIN-93G (Oriental Yeast Co., Ltd.) free from components derived from soybeans. 3) Photographing of Skin and Harvesting of Prostate After a lapse of 28 days, body weights were measured, and subsequently, the rats were euthanized by blood letting under isoflurane anesthesia. […] Wet weights were measured. […]
# [2] = test system: prostate of testosterone-induced prostatic hyperplasia rat; assay: Efficacy on prostate in testosterone-induced prostatic hyperplasia rat; assay type: in vivo; settings: testosterone 3 mg/kg/day plus test substance 0.1 or 1 mg/kg body weight/day, subcutaneous osmotic pump, 28 days, vs testosterone alone
# From the text: 12-week-old male Slc:SD (SPF) rats were obtained from Japan SLC, Inc. An acclimatization period was established for 1 week after receipt. During the acclimatization period, the rats were allowed to freely ingest a powder diet (AIN-93G).
# 2) Implantation of Osmotic Pump
# After body weight measurement, back hair was shaved under isoflurane (AbbVie GK) inhalation anesthesia, and carprofen was subcutaneously administered to the rats. Then, an incision of approximately 1 cm at the maximum was made on the cranial side in the back. An osmotic minipump Alzet (Muromachi Kikai Co., Ltd.) containing testosterone and compound 17-F or finasteride (Sigma-Aldrich Co. LLC) was subcutaneously implanted. From this osmotic pump, testosterone (3 mg/kg body weight/day) (Sigma-Aldrich Co. LLC) and compound 17-F (0.1 mg/body weight/day or 1 mg/kg body weight/day) or finasteride (0.1 mg/kg body weight/day or 1 mg/kg body weight/day) were continuously administered for 28 days. Since the implantation of the osmotic pump, the rats were allowed to freely ingest customized feed AIN-93G (Oriental Yeast Co., Ltd.) free from components derived from soybeans.
# 3) Photographing of Skin and Harvesting of Prostate
# After a lapse of 28 days, body weights were measured, and subsequently, the rats were euthanized by blood letting under isoflurane anesthesia. Back hair was shaved, followed by photographing. Then, the abdominal cavity was opened to harvest the prostate on the ventral side. Wet weights were measured.
smiles,measurement,setting,value
"CC(C)(C)NC(=O)[C@H]1CC[C@H]2[C@@H]3CC[C@H]4NC(=O)C=C[C@]4(C)[C@H]3CC[C@]12C [finasteride, reference compound]","skin browning induced by testosterone (sebum secretion, FIG. 3)",[1],such an inhibitory effect was not confirmed
same,"size of the prostate (visual, FIG. 1)",[2],Concentration-dependent decrease in the size of the prostate
same,weight of the prostate corrected with the body weight (FIG. 2),[2],decreased to almost the same level as in the DMSO administration group
